From patent US11059815B2, “Synthesis of small molecule histone deacetylase 6 degraders, compounds formed thereby, and pharmaceutical compositions containing them” (Wisconsin Alumni Research Foundation, priority 2018, dated 2021)

Molecular target: T1, HDAC6 (Homo sapiens, UniProt Q9UBN7)
T1 construct: endogenous in cells; host or cells: MM1S (ATCC CRL-2974)
T1 sequence (Q9UBN7 1-1215): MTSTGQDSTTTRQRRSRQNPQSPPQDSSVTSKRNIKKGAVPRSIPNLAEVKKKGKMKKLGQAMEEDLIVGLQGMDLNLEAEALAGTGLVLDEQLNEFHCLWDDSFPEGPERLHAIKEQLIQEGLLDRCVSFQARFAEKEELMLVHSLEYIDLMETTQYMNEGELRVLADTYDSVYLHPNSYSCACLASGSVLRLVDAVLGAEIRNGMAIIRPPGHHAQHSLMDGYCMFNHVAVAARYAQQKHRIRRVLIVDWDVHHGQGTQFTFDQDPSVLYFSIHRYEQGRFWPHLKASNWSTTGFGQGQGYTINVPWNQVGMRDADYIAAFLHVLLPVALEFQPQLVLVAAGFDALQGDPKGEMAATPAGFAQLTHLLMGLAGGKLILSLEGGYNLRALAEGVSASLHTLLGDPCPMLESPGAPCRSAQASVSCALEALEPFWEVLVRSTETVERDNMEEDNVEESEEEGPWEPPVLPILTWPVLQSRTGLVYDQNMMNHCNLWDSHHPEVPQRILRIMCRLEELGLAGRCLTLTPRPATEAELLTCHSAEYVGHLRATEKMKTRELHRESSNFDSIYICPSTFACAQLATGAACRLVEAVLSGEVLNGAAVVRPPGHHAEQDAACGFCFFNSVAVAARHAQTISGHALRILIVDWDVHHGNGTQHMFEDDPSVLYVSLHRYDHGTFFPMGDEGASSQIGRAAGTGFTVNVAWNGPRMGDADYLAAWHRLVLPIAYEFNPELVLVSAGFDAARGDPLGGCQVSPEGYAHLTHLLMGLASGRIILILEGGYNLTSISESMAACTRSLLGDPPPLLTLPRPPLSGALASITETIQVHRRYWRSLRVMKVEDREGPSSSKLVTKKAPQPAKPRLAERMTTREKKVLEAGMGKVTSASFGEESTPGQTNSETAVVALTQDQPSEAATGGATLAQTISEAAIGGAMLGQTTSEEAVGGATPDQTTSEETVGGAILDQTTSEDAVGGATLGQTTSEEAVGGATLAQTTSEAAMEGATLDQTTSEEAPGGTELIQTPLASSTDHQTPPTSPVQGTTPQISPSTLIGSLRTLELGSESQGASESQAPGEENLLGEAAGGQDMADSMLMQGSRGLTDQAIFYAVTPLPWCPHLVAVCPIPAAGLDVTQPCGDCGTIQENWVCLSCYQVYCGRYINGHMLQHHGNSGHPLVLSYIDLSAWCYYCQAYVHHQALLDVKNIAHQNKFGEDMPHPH
Test: In-cell ELISA of HDAC6 protein level in MM1S cells
Assay type: cell-based
Details: 6 h; for DC50 / Dmax: 0.1 nM to 1 μM, nonlinear fit, ± SD; for Dmax / inhibition at 0.01 µM / inhibition at 0.1 µM: MM1.S; for Dmax: read-out: Dmax (Vehicle %); for inhibition at 0.01 µM: 10 nM, n=3, read-out: Degradation (%) 10 nM; for inhibition at 0.01 µM / inhibition at 0.1 µM: 100% minus mean (± SD) relative HDAC6 expression; for inhibition at 0.1 µM: 100 nM, n=3, read-out: Degradation (%) 100 nM
Experimental: FIG. 9 is a histogram depicting the results of screening of compounds for HDAC6 degradation activity by in-cell ELISA. MM1S cells were treated with compounds at 100 nM (blue bars) or 10 nM (red bars) for 6 h. Data was normalized to vehicle (DMSO)-treated group and the bar graph represents as mean of relative HDAC6 protein level (n=3) with ±SD as error bar. Statistical significance was analyzed by one-way ANOVA. Not significant (ns) P>0.05, *P≤0.05, **P≤0.01, ***P≤0.001, ****P≤0.0001.
FIG. 11 is a graph depicting dose response of selected degrader candidates. MM1S cells were treated for 6 h and analyzed by in-cell ELISA. Data was normalized to vehicle (DMSO)-treated group and dot plot represented as mean relative expression (n=3) with ±SD as error bar. Nonlinear fitting of inhibitor concentration vs. response (three parameters) was generated by GraphPad Prism with R2 from 0.97 to 0.99.
FIG. 15 is a histogram depicting relative HDAC6 expression as a function of linker length for compounds 3a through 3k as described in the Examples section, Part 2. Human MM1S cells were treated with 100 nM degraders for 6 hours and analyzed by in-cell ELISA assay.
FIG. 17 is a dose-response curve for degraders 3j (n=1), 3k (n=12) and 2, at concentrations from 1 nM to 300 nM for 4 h in MM1S. See the Examples, Part 2.
To screen the new series of degraders, an in-cell ELISA assay was developed and validated. The compounds were treated at 100 nM and 10 nM in MM1S cells for 6 h. Resulting cells were then fixed and analyzed by in-cell ELISA. […] Degraders including 1 at 100 nM degraded 73.5% to 85.0% of HDAC6 with minor difference. At 10 nM concentration of compounds, obvious structure-activity-relationship (SAR) was observed. […] For example, 12d, 12h, 12i, 12o and 12p all achieved about 70% degradation. Among the C4-linked series, 12d with medium length linker (5+1) achieved most degradation in sub-series 12a-e (m=1). […] Among C5-linked series, the potency of sub-series 12l-p (m=1) increased with the linker length. […] It appeared that both the distance and linking positions contributed to the degradation efficiency. The rigid triazole ring in the middle of the linker likely modulated the plasticity of degrader-bridged ternary complex.
The amount of cellular HDAC6 was measured in response to concentrations of compounds from 0.1 nM to 1 μM. […] The new degraders had single-digit nanomolar DC50, which was about 3 to 5 fold of improvement from 9.12 nM of degrader 1. […] As discussed above, most PROTACs were designed to avoid degrading other proteins except the targeted POIs. However, in these studies, it was hypothesized that HDAC6 degraders with IKZF degradation will have enhanced anti-proliferation effect MM1S cells.
MM1S cells were harvested and plated with 5×10^5 cells in 100 μL media per well 96-wells plate. After overnight seeding, 25 μL media containing 5× dosing concentration of the compounds or vehicle was added to each well. After 6-hour treatment at 37° C. in a humidified 5% CO2 atmosphere, cells were fixed by adding 125 μL 8% formaldehyde in TBS buffer (137 mM NaCl, 25 mM Tris, 2.7 mM potassium chloride, pH 7.6) and incubated at room temperature (RT) for 15 minutes. Removal of fixing solution was followed by once rinse and twice washes with TBS-T washing buffer (137 mM NaCl, 20 mM Tris, 0.1% Tween, pH 7.6). Cells were then permeabilized by adding 100 μL 0.1% Triton-X in TBS and incubated at RT for 15 minutes. Removal of permeabilizing solution was followed by once rinse and once wash with TBS-T. Cellular endogenous peroxidases were quenched by adding 100 μL 1% H2O2 in TBS and incubation at RT for 20 minutes. Removal of quenching solution was followed by once rinse and once wash with TBS-T. Non-specific binding sites were blocked by adding […] 5% BSA in TBS-T (with 0.02% NaN3) and incubation at 4° C. overnight. […]

DC50 [nM] | Dmax [%] | inhibition at 0.01 µM [%] | inhibition at 0.1 µM [%] | Compound
3.41 ± 0.52 | 88 ± 2.23 | 62.1 ± 1 | 81.3 ± 2.3 | CCCCN(Cc1ccc(C(=O)NO)cc1)C(=O)Nc1ccc(OCCn2cc(CNc3cccc4c3C(=O)N(C3CCC(=O)NC3=O)C4=O)nn2)cc1 (centres unmarked) [Compound 12a, 4-((1-butyl-3-(4-(2-(4-(((2-(2,6-dioxopiperidin-3-yl)-1,3-dioxoisoindolin-4-yl)amino)methyl)-1H-1,2,3-triazol-1-yl)ethoxy)phenyl)ureido)methyl)-N-hydroxybenzamide]
 |  | 67.3 ± 0.8 | 84.1 | CCCCN(Cc1ccc(C(=O)NO)cc1)C(=O)Nc1ccc(OCCCn2cc(CNc3cccc4c3C(=O)N(C3CCC(=O)NC3=O)C4=O)nn2)cc1 (centres unmarked) [Compound 12b, 4-((1-butyl-3-(4-(3-(4-(((2-(2,6-dioxopiperidin-3-yl)-1,3-dioxoisoindolin-4-yl)amino)methyl)-1H-1,2,3-triazol-1-yl)propoxy)phenyl)ureido)methyl)-N-hydroxybenzamide]
 |  | 66.1 ± 1.1 | 77.8 ± 1.7 | CCCCN(Cc1ccc(C(=O)NO)cc1)C(=O)Nc1ccc(OCCCCCCn2cc(CNc3cccc4c3C(=O)N(C3CCC(=O)NC3=O)C4=O)nn2)cc1 (centres unmarked) [Compound 12e, 4-((1-butyl-3-(4-((6-(4-(((2-(2,6-dioxopiperidin-3-yl)-1,3-dioxoisoindolin-4-yl)amino)methyl)-1H-1,2,3-triazol-1-yl)hexyl)oxy)phenyl)ureido)methyl)-N-hydroxybenzamide]
 |  | 49.3 ± 0.6 | 81.8 ± 0.9 | CCCCN(Cc1ccc(C(=O)NO)cc1)C(=O)Nc1ccc(OCCn2cc(CCNc3cccc4c3C(=O)N(C3CCC(=O)NC3=O)C4=O)nn2)cc1 (centres unmarked) [Compound 12f, 4-((1-butyl-3-(4-(2-(4-(2-((2-(2,6-dioxopiperidin-3-yl)-1,3-dioxoisoindolin-4-yl)amino)ethyl)-1H-1,2,3-triazol-1-yl)ethoxy)phenyl)ureido)methyl)-N-hydroxybenzamide]
 |  | 64.8 ± 1 | 84.2 ± 0.4 | CCCCN(Cc1ccc(C(=O)NO)cc1)C(=O)Nc1ccc(OCCCn2cc(CCNc3cccc4c3C(=O)N(C3CCC(=O)NC3=O)C4=O)nn2)cc1 (centres unmarked) [Compound 12g, 4-((1-butyl-3-(4-(3-(4-(2-((2-(2,6-dioxopiperidin-3-yl)-1,3-dioxoisoindolin-4-yl)amino)ethyl)-1H-1,2,3-triazol-1-yl)propoxy)phenyl)ureido)methyl)-N-hydroxybenzamide]
2.54 ± 0.32 | 86.3 ± 1.67 | ~70 | 83.1 ± 1 | CCCCN(Cc1ccc(C(=O)NO)cc1)C(=O)Nc1ccc(OCCn2cc(CCCNc3cccc4c3C(=O)N(C3CCC(=O)NC3=O)C4=O)nn2)cc1 (centres unmarked) [Compound 12i, 4-((1-butyl-3-(4-(2-(4-(3-((2-(2,6-dioxopiperidin-3-yl)-1,3-dioxoisoindolin-4-yl)amino)propyl)-1H-1,2,3-triazol-1-yl)ethoxy)phenyl)ureido)methyl)-N-hydroxybenzamide]
 |  | 45.6 ± 1.6 | 77.3 ± 1.5 | CCCCN(Cc1ccc(C(=O)NO)cc1)C(=O)Nc1ccc(OCCCn2cc(CCCNc3cccc4c3C(=O)N(C3CCC(=O)NC3=O)C4=O)nn2)cc1 (centres unmarked) [Compound 12j, 4-((1-butyl-3-(4-(3-(4-(3-((2-(2,6-dioxopiperidin-3-yl)-1,3-dioxoisoindolin-4-yl)amino)propyl)-1H-1,2,3-triazol-1-yl)propoxy)phenyl)ureido)methyl)-N-hydroxybenzamide]
 |  | 57.1 ± 1.4 | 81.4 ± 0.6 | CCCCN(Cc1ccc(C(=O)NO)cc1)C(=O)Nc1ccc(OCCn2cc(CNc3ccc4c(c3)C(=O)N(C3CCC(=O)NC3=O)C4=O)nn2)cc1 (centres unmarked) [Compound 12l, 4-((1-butyl-3-(4-(2-(4-(((2-(2,6-dioxopiperidin-3-yl)-1,3-dioxoisoindolin-5-yl)amino)methyl)-1H-1,2,3-triazol-1-yl)ethoxy)phenyl)ureido)methyl)-N-hydroxybenzamide]

Compound | DC50 [nM] | Dmax [%] | inhibition at 0.01 µM [%] | inhibition at 0.1 µM [%]
CCCCN(Cc1ccc(C(=O)NO)cc1)C(=O)Nc1ccc(OCCCCn2cc(CNc3cccc4c3C(=O)N(C3CCC(=O)NC3=O)C4=O)nn2)cc1 (centres unmarked) [Compound 12c, 4-((1-butyl-3-(4-(4-(4-(((2-(2,6-dioxopiperidin-3-yl)-1,3-dioxoisoindolin-4-yl)amino)methyl)-1H-1,2,3-triazol-1-yl)butoxy)phenyl)ureido)methyl)-N-hydroxybenzamide] |  |  | 64.3 ± 3.2 | 85 ± 1.2
CCCCN(Cc1ccc(C(=O)NO)cc1)C(=O)Nc1ccc(OCCCCn2cc(CCNc3cccc4c3C(=O)N(C3CCC(=O)NC3=O)C4=O)nn2)cc1 (centres unmarked) [Compound 12h, 4-((1-butyl-3-(4-(4-(4-(2-((2-(2,6-dioxopiperidin-3-yl)-1,3-dioxoisoindolin-4-yl)amino)ethyl)-1H-1,2,3-triazol-1-yl)butoxy)phenyl)ureido)methyl)-N-hydroxybenzamide] |  |  | ~70 | 79.2 ± 0.9
CCCCN(Cc1ccc(C(=O)NO)cc1)C(=O)Nc1ccc(OCCCCn2cc(CCCNc3cccc4c3C(=O)N(C3CCC(=O)NC3=O)C4=O)nn2)cc1 (centres unmarked) [Compound 12k, 4-((1-butyl-3-(4-(4-(4-(3-((2-(2,6-dioxopiperidin-3-yl)-1,3-dioxoisoindolin-4-yl)amino)propyl)-1H-1,2,3-triazol-1-yl)butoxy)phenyl)ureido)methyl)-N-hydroxybenzamide] |  |  | 50.9 ± 2.2 | 75.7 ± 0.8
